# Measured values taken from patent publication US20250066389A1, “HETEROCYCLIC AMIDES AND METHODS OF USING THE SAME” (Rgenta Therapeutics, Inc., priority 2021, published 2025).
# Structures can show the parent of a compound that is named as a salt.
# System: PMS1
# Experiment: Mini-Gene Reporter Assay—PMS1 (firefly luciferase mini-gene reporter transiently transfected into HEK293 cells)
# Type: cell-based
# Conditions: Homo sapiens; at 5 uM; mini-gene firefly luciferase reporter in HEK293 cells; read-out: PMS1 % Effect at 5 uM
# How it was run: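 HEK293 cells transiently transfected with a mini-gene construct (skipped exon with flanking introns/exons fused to firefly luciferase, pcDNA3.1) are incubated with compounds in duplicate. Exon inclusion raises luminescence; EC50 fitted by Levenberg-Marquardt; effect also scored at 5 μM.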
row,Structure (SMILES),activation at 5 µM [%]
1,"CCOc1cc2nc(C)cn2cc1C(=O)Nc1ccc(N2CC(C)NC(CC)C2)nn1 (stereo not drawn) [Compound 758, 7-ethoxy-N-(6-(3-ethyl-5-methylpiperazin-1-yl)pyridazin-3-yl)-2-methylimidazo[1,2-a]pyridine-6-carboxamide]",> 75
2,"CCOc1cc2nc(C)cn2cc1C(=O)Nc1ccc(C2=CCN(C)CC2)nn1 [Compound 759, 7-ethoxy-2-methyl-N-(6-(1-methyl-1,2,3,6-tetrahydropyridin-4-yl)pyridazin-3-yl)imidazo[1,2-a]pyridine-6-carboxamide]",> 75
3,"CCOc1cn2nc(C)cc2cc1C(=O)Nc1ccc(N2C[C@@H](C)N[C@@H](C)C2)nn1 [Compound 761, N-(6-((3R,5S)-3,5-dimethylpiperazin-1-yl)pyridazin-3-yl)-6-ethoxy-2-methylpyrazolo[1,5-a]pyridine-5-carboxamide hydrochloride]",> 75
